ChEMBL document CHEMBL1201862, “PubChem BioAssay data set” (2004)
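Growth conditions: 96-well plates. Treatment: test compound, 48 hours, 5 concentrations. Analysis: linear interpolation between bracketing concentrations; unreached endpoints set to highest concentration. GI50: concentration for 50% inhibition of growth.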 Activity calls are given as the source filed them. No stated cut-off is given here; in the data, active = GI50 up to about 1.1 µM and inactive = higher.

What was measured:
Assay in all cases: NCI tumour cell line growth inhibition, 48 h
[1] = system: BT-549
[2] = system: MDA-MB-231
[3] = system: SK-MEL-2
[4] = system: EKVX
[5] = system: RPMI-8226
[6] = system: HOP-92
[7] = system: MDA-N
[8] = system: NCI-H522
[9] = system: SN12C
[10] = system: SK-MEL-5
[11] = system: K562
[12] = system: SF-539
[13] = system: A498
[14] = system: TK-10
[15] = system: OVCAR-4
[16] = system: M14
[17] = system: KM12
[18] = system: PC-3
[19] = system: MOLT-4
[20] = system: 786-0
[21] = system: OVCAR-8
[22] = system: T47D
[23] = system: CAKI-1
[24] = system: UO-31
[25] = system: NCI/ADR-RES
[26] = system: UACC-62
[27] = system: ACHN
[28] = system: IGROV-1
[29] = system: HOP-62
[30] = system: HCT-15
[31] = system: SF-295
[32] = system: LOX IMVI
[33] = system: OVCAR-3
[34] = system: HT-29
[35] = system: SNB-19
[36] = system: A549
[37] = system: SNB-75
[38] = system: HCC 2998
[39] = system: SR
[40] = system: Malme-3M
[41] = system: HCT-116
[42] = system: SW-620
[43] = system: CCRF-CEM
[44] = system: SK-MEL-28
[45] = system: NCI-H226
[46] = system: U-251
[47] = system: NCI-H23
[48] = system: SK-OV-3
[49] = system: HL-60
[50] = system: MCF7
[51] = system: UACC-257
[52] = system: OVCAR-5
[53] = system: COLO 205
[54] = system: MDA-MB-435

O=c1c2ccc(Cl)cc2oc2c(CNc3ccc(S(=O)(=O)Nc4ncccn4)cc3)cccc12
GI50 [1]: > 100 µM (inactive)
GI50 [2]: > 100 µM (inactive)
GI50 [3]: > 100 µM (inactive)
GI50 [4]: > 100 µM (inactive)
GI50 [5]: > 100 µM (inactive)
GI50 [6]: > 100 µM (inactive)
GI50 [7]: > 100 µM (inactive)
GI50 [8]: > 100 µM (inactive)
GI50 [9]: > 100 µM (inactive)
GI50 [10]: > 100 µM (inactive)
GI50 [11]: > 100 µM (inactive)
GI50 [12]: 94.4 µM (inactive)
GI50 [13]: > 100 µM (inactive)
GI50 [14]: > 100 µM (inactive)
GI50 [15]: > 100 µM (inactive)
GI50 [16]: > 100 µM (inactive)
GI50 [17]: > 100 µM (inactive)
GI50 [18]: > 100 µM (inactive)
GI50 [19]: > 100 µM (inactive)
GI50 [20]: > 100 µM (inactive)
GI50 [21]: > 100 µM (inactive)
GI50 [22]: > 100 µM (inactive)
GI50 [23]: > 100 µM (inactive)
GI50 [24]: > 100 µM (inactive)
GI50 [25]: > 100 µM (inactive)
GI50 [26]: > 100 µM (inactive)
GI50 [27]: > 100 µM (inactive)
GI50 [28]: > 100 µM (inactive)
GI50 [29]: 90.8 µM (inactive)
GI50 [30]: > 100 µM
GI50 [31]: > 100 µM (inactive)
GI50 [32]: > 100 µM (inactive)
GI50 [33]: > 100 µM (inactive)
GI50 [34]: > 100 µM (inactive)
GI50 [35]: > 100 µM (inactive)
GI50 [36]: > 100 µM (inactive)
GI50 [37]: > 100 µM (inactive)
GI50 [38]: > 100 µM (inactive)
GI50 [39]: > 100 µM (inactive)
GI50 [40]: > 100 µM (inactive)
GI50 [41]: > 100 µM (inactive)
GI50 [42]: > 100 µM (inactive)
GI50 [43]: > 100 µM (inactive)
GI50 [44]: > 100 µM (inactive)
GI50 [45]: > 100 µM (inactive)
GI50 [46]: > 100 µM (inactive)
GI50 [47]: > 100 µM (inactive)
GI50 [48]: > 100 µM (inactive)
GI50 [49]: > 100 µM (inactive)
GI50 [50]: > 100 µM (inactive)
GI50 [51]: > 100 µM (inactive)
GI50 [52]: > 100 µM (inactive)
GI50 [53]: > 100 µM (inactive)
GI50 [54]: > 100 µM (inactive)
